The values below come from a melting point compilation (Tetko et al.; mined from patent text by program, amines drawn as free bases though some values may be those of a salt).

What is called melting point is the temperature, or range, at which the solid turns liquid.

As for `CNC(=O)Cc1ccc(N)c(N)c1`, the melting point was 136 to 138 °C. Regarding `CN(C)CCC(c1ccccc1)c1ncc[nH]1` (configuration not stated), the melting point was in the range of 135 to 136 °C. In the case of `CS(=O)c1ccc(CSc2nc(-c3ccc(F)cc3)c(-c3ccnc(Cl)c3)[nH]2)cc1` (configuration not stated), the melting point came to 179 °C.

In the case of `CC(O)CN1C(=O)N(CC(C)O)C(C)(C)C1=O` (configuration not stated), the melting point is 65 to 67 °C. In the case of `N=C(Nc1ccccc1-c1ccccc1)N1CCC(=NO)CC1` it was 175 to 176 °C; in that of `O=C1NC(=O)C2CCCCC12` (configuration not stated), 132 to 136 °C; in that of `O=C(Nc1cc(-c2c(-c3ccc(F)cc3)nc3cccnn23)ccn1)c1ccc(Cl)nc1`, 247 to 248 °C.

Compound `CCOC(=O)c1c(CCl)nc2sc(C)c(C)c2c1-c1ccc(OC)c(OC)c1` had a melting point of 162 to 163 °C. The compound `CC(=O)Nc1ccc(S(=O)(=O)Nc2nnc(S(N)(=O)=O)s2)cc1` gave a melting point of 280 to 281 °C.

`O=C(O)C1([N+](=O)[O-])C(c2ccc([N+](=O)[O-])cc2)N=C2C=CC=CN21` (configuration not stated): the melting point is more than 300 °C. With `COC(=O)C(=NO)c1nc2cc(C)ccc2oc1=O` the figure was 176 to 177 °C.

`CCc1ccc(-c2ccc(F)cc2)cc1` had a melting point of 60 to 63 °C.

In the case of `O=C(CN1CCCC1=O)N1CCN(C(=O)CN2CC(c3ccc(Cl)cc3)CC2=O)CC1` (configuration not stated), the melting point lay within 224 to 226 °C. In the case of `CC(C)CCCOc1c(-c2ccc(S(C)(=O)=O)cc2)cnn(-c2cccc(Cl)c2)c1=O` it was 139 to 140 °C; in that of `Nc1cc(F)c(N2CCNCC2)cc1Cl`, 110 °C; in that of `CCCCCCCCCCCCCCCCC(N)CO` (configuration not stated), 80.8 to 81.9 °C. With `Cc1cc(=O)[nH]c2ccc(Cn3ccnc3)cc12` the figure was 266 °C; with `CCCCCCCCCCCCCCN(C(=O)CCCCCCCCCCC)C1(N)OC(CO)C(O)C(O)C1C(=O)CNC(=O)C(C)(N)C(=O)C(C)N` (configuration not stated), 132 to 134 °C; with `CCCCCCOc1ccc(CCCCCCCCC(=O)O)cc1`, 79 to 81 °C. With `Cc1ccc(-c2cc(C(F)(F)F)n3cnc(C#N)c3n2)cc1` the figure was 197 °C; with `Cc1nc2ccc(F)cc2c2c1ncn2C`, 184 to 186 °C.

For the compound `O=C(c1ccc(Cl)cc1Cl)N1CCC(=NO)c2ccc(Cl)cc21`, the melting point fell in the range of 231 to 232 °C. Compound `COc1ccc(-n2nnc(-c3ccc(F)cc3F)c2N)cc1` showed a melting point of 152 to 156 °C. In turn, `Cn1nc(-c2ccccc2F)nc1-c1ccccc1C(F)(F)F` showed a melting point of 104 to 107 °C. In the case of `COc1cccc(NS(=O)(=O)c2sccc2C2OCCO2)c1` it was 112 to 114 °C; in that of `CCOC(=O)c1cc(=O)cc(-c2ccccc2Cl)o1`, 104 to 106 °C; in that of `Cc1cc(-c2nc3c(Cl)cccc3c(=O)[nH]2)cc(C)c1OCCN1CCCC1`, 216 to 217 °C.

In turn, `CCCN(CCC)CC1CCn2c(nc3ccccc32)S1` (configuration not stated) had a melting point of 82 to 84 °C. Consider `Cc1c2ccccc2c(-c2ccc(OS(C)(=O)=O)cc2)c2c1sc1ccccc12`, for which the melting point fell in the range of 172 to 173 °C. `CC(C)(C)OC(=O)COc1ccc([N+](=O)[O-])cc1F` came in with a melting point of 62 to 64 °C. In the case of `COc1ccc(Cn2c3c(ccc2=O)C(C)NC(SC)=N3)cc1Cl` (configuration not stated) it was 184 to 186 °C; in that of `Cc1ccnc(C(=O)c2[nH]c3cc(Cl)c(F)cc3c2CC(=O)O)c1`, 220 °C. In the case of `Cc1cc(C(=O)N2Cc3ccc(C(=O)O)n3Cc3ccccc32)ccc1C1=CCCc2ccccc21` it was 150 to 153 °C; in that of `COc1cc(OCc2ccncc2)ccc1/C=C/c1cc(/C=C/c2cccc3cc[nH]c23)n[nH]1`, 201 to 206 °C.

`CC1CN(Cc2ccccc2)CC1=NO` (configuration not stated) returned a melting point of 85 to 94 °C. In the case of `O=C(O)c1ccc2oc(-c3ccc(C(F)(F)F)cc3)cc2c1` it was more than 260 °C; in that of `Oc1cc(O)nc(C2CC2)n1`, more than 290 °C.
